{
  "source": "patent US20180184644A1",
  "about": "“CELL STABILIZATION” (Biomatrica, Inc., priority 2013, published 2018)",
  "key": {"[1]": {"system": "human neonatal fibroblasts", "test": "Cell viability by ATP content of substantially dry stored human neonatal fibroblasts", "format": "cell-based", "design": "% CELL VIABILITY 24 hr / % CELL VIABILITY 48 hr / % CELL VIABILITY 120 hr: concentration or dose not given beside the values", "conditions": "for % CELL VIABILITY 24 hr / % CELL VIABILITY 48 hr / % CELL VIABILITY 120 hr: inhibitor in predehydration and rehydration formulation; for % CELL VIABILITY 24 hr: MCS dehydration formulation 41, dry stored 24 hr at ambient temperature; for % CELL VIABILITY 48 hr: MCS dehydration formulation 41, dry stored 48 hr at ambient temperature; for % CELL VIABILITY 120 hr: MCS dehydration formulation 41, dry stored 120 hr at ambient temperature", "from_the_text": "ATP content may be determined using a Cell Titer-Glo Luminescent Cell viability Assay (Promega) in accordance with the manufacturer's instructions. The addition of the Cell Titer-Glo Luminescent reagent into the cells generates a luminescent signal proportional to the amount of intracellular ATP. The amount of ATP is directly proportional to the number of cells present in culture, and it is then a homogeneous method of determining the number of viable (metabolically active) cells in the rehydrated cell preparation.\nBriefly, human neonatal fibroblasts were suspended in Cascade Media 106 and seeded as 100 ul cultures at a densities of 100-5000 cells per test in 96 well plates and incubated in an environment of ambient atmosphere while maintaining an elevated CO2 level (5%-10%) and temperature of 37 C with relative humidity of 85-95%. The culture is adjusted to specific composition of predehydration formulations and media specified concentration of each apoptosis inhibitor. The cells were incubated for a period of at least one hour but not more than 3 hours hr at 37° C. The predehydration formulation was thoroughly removed and 10-15 ul of MCS dehydration formulation 41 (Table 1) was added to each well. The cells were substantially air dried at 37 C, 5% CO2, 20% relative humidity over a period of 90 minutes, stored at ambient temperature for a period of 24, 48 or 120 hours. At the appropriate time, the substantially dry stored cells were rehydrated by treating with a rehydration formulation comprising the same concentration of apoptosis inhibitor in 100-200 μl of predehydration formulation. Cell viability was determined by measuring ATP content as described herein."}, "Mammalian cells": {"system": "Mammalian cells", "conditions": "trehalose-loaded dried cells stored for even few minutes; cited from earlier work"}, "HeLa cells": {"system": "HeLa cells", "test": "Cell viability by Trypan Blue method of substantially dry stored HeLa cells", "format": "cell-based", "procedure": "Cell viability may be measured using a Trypan Blue staining procedure. […] Cell counting was performed in 9 mm KOVA glass slides 10 with Grid Chambers (Hycor) in triplicate under a Leitz Fluovert microscope. The percentage of cell survival is reported relative to untreated control cells. Briefly, HeLa cells were substantially dry stored using predetermined predehydration formulations (SC1, salubrinal and SC3, MLS-0315763) and a subset of the dehydration formulations set forth in Table 1 for a period of seven hours and then rehydrated using the rehydration formulations listed below (RC1, salubrinal and RC3, MLS-0315763). Cell viability was assessed seven days after rehydration using the Trypan Blue method. The results are shown in Table 3 and FIG. 3A and FIG. 3B."}},
  "note": "Entries after “also recorded” stand apart in the source; their conditions may differ.",
  "data": [
    {"compound": "C[S+]([O-])CCCCN=C=S", "note": "[L-sulphurophane]", "values": [
      {"measurement": "% CELL VIABILITY 24 hr", "setting": "[1]", "value": 98.8, "unit": "%"},
      {"measurement": "% CELL VIABILITY 48 hr", "setting": "[1]", "value": 65.3, "unit": "%"},
      {"measurement": "% CELL VIABILITY 120 hr", "setting": "[1]", "value": 50.9, "unit": "%"}
    ]},
    {"compound": "O=c1cc(N2CCOCC2)oc2c(-c3ccccc3)cccc12", "note": "[LY294002, 2-(4-morpholinyl)-8-phenyl-4H-1-benzopyran-4-one]", "values": [
      {"measurement": "% CELL VIABILITY 24 hr", "setting": "[1]", "value": 83.8, "unit": "%"},
      {"measurement": "% CELL VIABILITY 48 hr", "setting": "[1]", "value": 85.9, "unit": "%"},
      {"measurement": "% CELL VIABILITY 120 hr", "setting": "[1]", "value": 98.7, "unit": "%"}
    ]},
    {"compound": "O=C(NOC[C@H](O)CO)c1ccc(F)c(F)c1Nc1ccc(I)cc1F", "note": "[PD032591, N-[(2R)-2,3-dihydroxypropoxy]-3,4-difluoro-2-[(2-fluoro-4-iodophenyl)amino]-benzamide]", "values": [
      {"measurement": "% CELL VIABILITY 24 hr", "setting": "[1]", "value": 100.0, "unit": "%"},
      {"measurement": "% CELL VIABILITY 48 hr", "setting": "[1]", "value": 85.1, "unit": "%"},
      {"measurement": "% CELL VIABILITY 120 hr", "setting": "[1]", "value": 95.7, "unit": "%"}
    ]},
    {"compound": "CO[C@H]1C[C@@H]2CC[C@@H](C)[C@@](O)(O2)C(=O)C(=O)N2CCCC[C@H]2C(=O)O[C@H]([C@H](C)C[C@@H]2CC[C@@H](O)[C@H](OC)C2)CC(=O)[C@H](C)/C=C(\\C)[C@@H](O)[C@@H](OC)C(=O)[C@H](C)C[C@H](C)/C=C/C=C/C=C/1C", "note": "[Rapamycin]", "values": [
      {"measurement": "% CELL VIABILITY 24 hr", "setting": "[1]", "value": 88.4, "unit": "%"},
      {"measurement": "% CELL VIABILITY 48 hr", "setting": "[1]", "value": 73.2, "unit": "%"},
      {"measurement": "% CELL VIABILITY 120 hr", "setting": "[1]", "value": 90.0, "unit": "%"}
    ]},
    {"compound": "O=C(/C=C/c1ccccc1)NC(NC(=S)Nc1cccc2cccnc12)C(Cl)(Cl)Cl", "note": "(stereo not shown) [Salubrinal]", "values": [
      {"measurement": "% CELL VIABILITY 24 hr", "setting": "[1]", "value": 100.0, "unit": "%"},
      {"measurement": "% CELL VIABILITY 48 hr", "setting": "[1]", "value": 72.9, "unit": "%"},
      {"measurement": "% CELL VIABILITY 120 hr", "setting": "[1]", "value": 109.5, "unit": "%"}
    ]},
    {"compound": "OC[C@H]1O[C@H](O[C@H]2O[C@H](CO)[C@@H](O)[C@H](O)[C@H]2O)[C@H](O)[C@@H](O)[C@@H]1O", "note": "[Trehalose]", "values": [
      {"measurement": "viable cells (in words)", "setting": "[1]; by 24 hr of dry storage", "value": "little to no viable cells"},
      {"measurement": "% CELL VIABILITY 24 hr", "setting": "[1]", "value": 7.5, "unit": "%"},
      {"measurement": "% CELL VIABILITY 48 hr", "setting": "[1]", "value": 0.0, "unit": "%"},
      {"measurement": "% CELL VIABILITY 120 hr", "setting": "[1]", "value": 0.0, "unit": "%"},
      {"measurement": "cell survival after dry storage (in words)", "setting": "Mammalian cells", "value": "complete cell death"},
      {"measurement": "surviving / viable cells (in words)", "setting": "HeLa cells; HeLa cells, 7 hours dry storage, 7 days after rehydration", "value": "did not yield in any viable cells; also recorded: did not yield any surviving cells"},
      {"measurement": "% HeLa Cell Viability", "setting": "HeLa cells; dry stored seven hours, Trypan Blue seven days after rehydration", "value": 0, "unit": "%"}
    ]}
  ]
}
